Experimental data: PubChem BioAssay (NCI)
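Grown in 96-well plates, cells were treated for 48 hours with each compound at five concentrations. Insufficient inhibition: endpoint recorded as highest concentration tested. TGI is the concentration that stops growth completely.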

Columns and labels:
Assay in all cases: NCI tumour cell line growth inhibition, 48 h
[1] = system: NCI-H522 lung
[2] = system: HCT-15 colon
[3] = system: MDA-MB-435
[4] = system: OVCAR-3 ovarian
[5] = system: DU-145 prostate
[6] = system: KM12 colon
[7] = system: PC-3 prostate
[8] = system: CAKI-1 renal
[9] = system: SF-268 CNS
[10] = system: SNB-75 CNS
[11] = system: SF-539 CNS
[12] = system: COLO 205 colon
[13] = system: BT-549 breast
[14] = system: SK-MEL-2 melanoma
[15] = system: 786-0 renal
[16] = system: SF-295 CNS
[17] = system: SN12C renal
[18] = system: OVCAR-5 ovarian
[19] = system: MDA-N
[20] = system: M14 melanoma
[21] = system: T-47D breast
[22] = system: NCI-H460 lung
[23] = system: ACHN renal
[24] = system: MDA-MB-231 breast
[25] = system: HOP-62 NSCLC
[26] = system: U251 CNS
[27] = system: UO-31 renal
[28] = system: NCI-H23 lung
[29] = system: SK-OV-3 ovarian
[30] = system: UACC-257 melanoma
[31] = system: HOP-92 NSCLC
[32] = system: OVCAR-4 ovarian
[33] = system: NCI-H226 lung
[34] = system: SK-MEL-5 melanoma
[35] = system: HCT-116 colon
[36] = system: EKVX NSCLC
[37] = system: SNB-19 CNS
[38] = system: RPMI-8226 leukemia
[39] = system: NCI/ADR-RES ovarian
[40] = system: SK-MEL-28 melanoma
[41] = system: UACC-62 melanoma
[42] = system: TK-10 renal
[43] = system: MALME-3M melanoma
[44] = system: A498 renal
[45] = system: A549 NSCLC
[46] = system: K-562 leukemia
[47] = system: OVCAR-8 ovarian
[48] = system: CCRF-CEM leukemia
[49] = system: HCC-2998 colon
[50] = system: IGROV1 ovarian
[51] = system: MCF7 breast
[52] = system: HL-60(TB) leukemia
[53] = system: LOX IMVI melanoma
[54] = system: MOLT-4 leukemia
[55] = system: SW-620 colon
[56] = system: SR leukemia
[57] = system: HS 578T breast
[58] = system: HT29 colon
[59] = system: RXF 393 renal

Measured: TGI

CCCCN(CCCC)C(=C(C(Cl)=C(Cl)Cl)[N+](=O)[O-])N(CCCC)CCCC
4.69 µM: [46]
58.7 µM: [38]
not listed: [47] | [48] | [49] | [50] | [51] | [52] | [53] | [54] | [55] | [56] | [57] | [58] | [59]
> 100 µM: all other assays above

CC(C)(C)OC(=O)C1C(=O)NC(=O)CC1C(COCc1ccccc1)OCc1ccccc1 (stereo not given)
37.1 µM: [58]
41.4 µM: [30]
35.8 µM: [1]
57.7 µM: [51]
32.1 µM: [40]
54.5 µM: [2]
92.6 µM: [28]
38.7 µM: [21]
49.7 µM: [3]
39.4 µM: [33]
26.6 µM: [25]
31.1 µM: [34]
41.1 µM: [18]
47.7 µM: [49]
55.5 µM: [36]
36.4 µM: [24]
46.3 µM: [4]
55.6 µM: [13]
77.3 µM: [48]
64.1 µM: [56]
55.8 µM: [27]
34.8 µM: [20]
35.5 µM: [43]
27.2 µM: [7]
45.3 µM: [15]
62.6 µM: [38]
52.9 µM: [54]
> 100 µM: [47] | [5] | [8] | [37] | [42] | [45] | [46]
40.6 µM: [11]
52.5 µM: [50]
50.7 µM: [23]
60.6 µM: [52]
65.1 µM: [55]
36.2 µM: [19]
59.3 µM: [9]
30.5 µM: [31]
40.2 µM: [26]
49.5 µM: [57]
34.7 µM: [53]
43.3 µM: [16]
32.7 µM: [35]
36.7 µM: [6]

Nc1ccc2nc3n(c2c1)C(=O)c1ccccc1-3
not listed: [3] | [21] | [24] | [25] | [44] | [53] | [57]
> 100 µM: all other assays above

COc1ccc(N=NC(=Nc2ccc(F)cc2)c2ccc(N(CCC#N)CCC#N)cc2)cc1
72.9 µM: [31]
65.6 µM: [28]
86.4 µM: [57]
44.9 µM: [6]
90 µM: [59]
43.1 µM: [45]
84.4 µM: [26]
57.3 µM: [41]
51.5 µM: [49]
47 µM: [1]
84.1 µM: [10]
58.9 µM: [7]
76.3 µM: [44]
52.8 µM: [24]
70.4 µM: [30]
70.8 µM: [13]
52 µM: [22]
77.7 µM: [50]
not listed: [14] | [43] | [52] | [53]
> 100 µM: all other assays above

Nc1ccc2[nH]cc(CCC(=O)O)c2c1
32.9 µM: [48]
76.5 µM: [52]
not listed: [22] | [31] | [46] | [49] | [56]
> 100 µM: all other assays above

COC(=O)[C@H](Cc1ccccc1)NC(=O)c1ccc(CNC(=O)/C=C/c2cccc(Oc3ccccc3)c2)cc1
46.3 µM: [57]
15.3 µM: [19]
59.3 µM: [9]
48.6 µM: [24]
21.8 µM: [30]
51.7 µM: [44]
58.1 µM: [8]
42.6 µM: [50]
30.4 µM: [43]
21 µM: [31]
92.5 µM: [42]
24 µM: [41]
24.2 µM: [59]
42.1 µM: [12]
36.9 µM: [34]
40.2 µM: [23]
30.8 µM: [20]
89.7 µM: [49]
27.7 µM: [14]
28.3 µM: [3]
40.4 µM: [4]
75.9 µM: [17]
23.9 µM: [40]
not listed: [1] | [11] | [52] | [53]
> 100 µM: all other assays above

O=C(O)CSC(NC(=O)C(C(F)(F)F)C(F)(F)F)(C(F)(F)F)C(F)(F)F
83.3 µM: [47]
not listed: [1] | [4] | [5] | [6] | [16] | [22] | [24] | [25] | [31] | [32] | [33] | [41] | [43] | [51]
> 100 µM: all other assays above

CN1COCc2cc3cc4c(cc3nc21)OCCO4
62.5 µM: [38]
not listed: [4] | [5] | [21] | [27] | [28] | [40] | [52] | [56] | [57]
> 100 µM: all other assays above
